Data published in patent US20050032165A1, “Potassium channels, nucleotide sequences encoding them, and methods of using same” (BASF AKTIENGESELLSCHAFT, priority 1994, published 2005).

What was measured:
CY162 cells = test: Yeast agar plate bioassay, control pYES2-containing CY162 strain; type: cell-based, Saccharomyces cerevisiae; conditions: CY162 bearing pYES2; low potassium agar; compound on filter disk
Protocol: (§1) FIG. 8. Inhibition of growth of yeast cells containing heterologous potassium channels. CY162 cells (10^5) bearing the indicated plasmids are plated in arginine phosphate agar medium containing 0.2 mM potassium chloride. Sterile filter disks were placed on the surface of the agar and saturated with 20 μl of a 1 M solution of potassium channel blocking compound. Clockwise from upper left-hand comer is BaCl2, CsCl, TEA, and RbCl. KCl is applied to the center disk.
Yeast strains dependent on heterologous potassium channels for growth should be sensitive to non-specific potassium channel blocking compounds. To test the potassium channel blocking properties of several compounds, a convenient agar plate bioassay is employed. Strains containing pKAT1, pRATRAK, pDmORF1, and pYES2 are plated in arginine-phosphate-dextrose agar medium lacking ura and containing various amounts of potassium chloride. Arginine-phosphate-dextrose medium is used to avoid interference from potassium and ammonium ions present in standard synthetic yeast culture medium. Sterile filter disks were placed on the surface of the agar and saturated with potassium channel blocking ions CsCl, BaCl2, and TEA. The growth of heterologous potassium channel containing strains is inhibited by potassium channel blocking ions, in a channel dependent manner. DmORF1-dependent growth is blocked by BaCl2 but not by CsCl or TEA. […]

TPKC1 [1] = target: T1, TPKC1 (Homo sapiens, UniProt O95069, D309R/L311V/L365I/T411A/W310L); test: Growth of TPKC1-containing CY162 cells on low potassium media; type: cell-based; design: The TPKC1 ORF was amplified by PCR with 5′ primer; expressed in transfected cells; conditions: low (2-3 mM KCl) potassium media
T1 sequence (O95069 1-426 D309R/W310L/L311V/L365I/T411A): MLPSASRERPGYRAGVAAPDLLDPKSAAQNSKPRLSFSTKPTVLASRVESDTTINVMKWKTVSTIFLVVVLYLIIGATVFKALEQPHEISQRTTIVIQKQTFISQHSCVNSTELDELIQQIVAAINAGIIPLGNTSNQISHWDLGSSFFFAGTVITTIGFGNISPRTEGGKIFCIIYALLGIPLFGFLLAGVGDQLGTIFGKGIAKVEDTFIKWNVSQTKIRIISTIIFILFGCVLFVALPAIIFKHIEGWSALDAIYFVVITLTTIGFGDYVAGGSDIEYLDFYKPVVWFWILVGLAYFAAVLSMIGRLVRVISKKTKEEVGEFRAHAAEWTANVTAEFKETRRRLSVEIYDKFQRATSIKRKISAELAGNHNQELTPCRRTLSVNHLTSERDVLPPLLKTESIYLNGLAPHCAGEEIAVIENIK
Excerpt: The TPKC1 ORF was amplified using oligos that added restriction endonuclease cleavage sites appropriate for insertion into the yeast expression vectors pLP100 and pYES2 (Invitrogen). The corresponding TPKC1 expression plasmids, pLP155 and pLP156, were constructed using standard molecular biological methodology and used to transform S. cerevisiae CY162 cells using the lithium acetate method. The resulting yeast strains were examined for their ability to grow on standard synthetic agar media containing a low concentration of KCl. Expression of TPKC1 in CY162 cells supports their growth on low (2-3 mM KCl) potassium media. […] The growth of TPKC1-containing CY162 cells was inhibited by the known potassium channel blockers Ba^2+, Ca^2+, Cs^+, and quinine, but not by TEA. The oligos used for the cloning of 5′ and 3′ RACE fragments were used in this analysis as well.
LY890 (MAT trk1:: LYS2 trk2::TRP1 ura3-52 lys2-801, ade2-101, trp1-Δ63, his3-Δ200, leu2-Δ1) was constructed by deletion of the TRK1 and TRK2 genes from the parent yeast strain YPH500 (Stratagene). The full length TPKC1 ORF fragment was generated by PCR; 5′ primer (5′-AAAAGATCTAAAATGCTTCCCAGCGCC-3′), 3′ primer (AAAGTCGACCTATTTGATGTTCTCAAT-3′) and inserted into the yeast expression vector pLP100 [18] to yield pLP155. pLP155 was used to transform S. cerevisiae LY890 cells using standard methods. CY162 was constructed as described in J. A. Anderson et al., Proc. Natl. Acad. Sci. USA 89, 3736-3740 (1992). Yeast cells (10^5) containing the indicated plasmids were plated in RPD (arginine phosphate glucose) low potassium (2 mM) agar media and compounds applied to the surface of the agar.

TPKC1 [2] = target: T1, TPKC1; test: TPCK1-induced currents in X. laevis oocytes, two-electrode voltage clamp; type: cell-based; design: The TPKC1 ORF was amplified by PCR with 5′ primer; expressed in transfected cells; host or cells: Xenopus laevis oocytes injected with cRNA transcribed from pLP163; conditions: for block of TPKC1 current: relative to Ba2+ (50% at 1 mM), data not shown
Excerpt: The expression vector pLP160 was generated by inserting a poly (A)n tract (n=30) followed by a BglII site between the Not1 and XbaI sites of pBluescript SK (+/−) (Stratagene). The final vector contains a deletion from the poly(A) tract through the BamH1 site. The TPKC1 ORF was amplified by PCR with 5′ primer (5′-AAAAAGCTTGCCACCATGCTTCCCAGCGCC-3′) and 3′ primer (5′-CTA TTT GAT GTT CTC-3′), digested with the HindIII and inserted into the vector pLP160 digested with HindIII and SmaI to give pLP163. This construct was linearized with BglII for in vitro cRNA transcription with T7 RNA polymerase (Ambion). The cRNA was quantified by gel electrophoresis using RNA standards (Gibco BRL). One ng of TPKC1 cRNA (23 nl of 40 ng/μl solution) was microinjected into defolliculated oocytes from Xenopus laevis. Oocytes were incubated at 17° C. with gentle shaking in ND96 medium. Whole cell electrophysiological recordings were taken 1-3 days post-injection at room temperature in a constantly-perfusing bath using a two-electrode voltage clamp protocol of 300 ms pulses from −150 to +60 mV from a holding potential of −90 mV. The interval between pulses was one second. Electrodes (3 MΩ current injection, 30 MΩ voltage recording) contained 4 M potassium acetate.

KAT1 = target: T2, KAT1 (Arabidopsis thaliana, UniProt Q39128); test: Yeast agar plate bioassay, KAT-dependent growth of CY162; type: cell-based, plant; conditions: CY162 yeast bearing pKAT1; filter disk with 20 μl of 1 M solution; arginine phosphate agar, 0.2 mM KCl
T2 construct: expressed in transfected cells; host or cells: Saccharomyces cerevisiae CY162 carrying pKAT1
T2 sequence (Q39128 whole entry): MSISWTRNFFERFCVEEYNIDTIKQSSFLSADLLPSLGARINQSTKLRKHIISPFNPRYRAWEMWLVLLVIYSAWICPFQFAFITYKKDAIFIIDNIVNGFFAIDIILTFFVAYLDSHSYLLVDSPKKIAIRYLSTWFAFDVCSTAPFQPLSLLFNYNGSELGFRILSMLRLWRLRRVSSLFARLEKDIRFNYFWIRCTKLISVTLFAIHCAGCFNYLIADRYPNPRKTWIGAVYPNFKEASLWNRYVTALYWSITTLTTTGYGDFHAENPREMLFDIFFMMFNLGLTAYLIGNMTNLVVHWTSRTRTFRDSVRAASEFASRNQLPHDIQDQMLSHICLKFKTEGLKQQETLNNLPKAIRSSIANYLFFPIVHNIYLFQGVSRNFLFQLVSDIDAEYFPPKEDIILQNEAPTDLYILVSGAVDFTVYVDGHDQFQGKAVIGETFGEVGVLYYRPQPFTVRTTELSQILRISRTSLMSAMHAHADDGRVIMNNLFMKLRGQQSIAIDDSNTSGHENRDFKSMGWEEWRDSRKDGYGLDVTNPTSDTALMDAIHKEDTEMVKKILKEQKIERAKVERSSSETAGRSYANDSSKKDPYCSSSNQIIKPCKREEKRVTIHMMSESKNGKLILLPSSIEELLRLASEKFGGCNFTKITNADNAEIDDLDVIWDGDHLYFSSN
Protocol: as §1
(§2) Yeast strains dependent on heterologous potassium channels for growth should be sensitive to non-specific potassium channel blocking compounds. To test the potassium channel blocking properties of several compounds, a convenient agar plate bioassay is employed. Strains containing pKAT1, pRATRAK, pDmORF1, and pYES2 are plated in arginine-phosphate-dextrose agar medium lacking ura and containing various amounts of potassium chloride. Arginine-phosphate-dextrose medium is used to avoid interference from potassium and ammonium ions present in standard synthetic yeast culture medium. Sterile filter disks were placed on the surface of the agar and saturated with potassium channel blocking ions CsCl, BaCl2, and TEA. The growth of heterologous potassium channel containing strains is inhibited by potassium channel blocking ions, in a channel dependent manner. DmORF1-dependent growth is blocked by BaCl2 but not by CsCl or TEA. KAT-dependent growth is blocked by BaCl2, CsCl and TEA. RATRAK-dependent growth is blocked by BaCl2, CsCl and TEA to a much greater extent than pKAT1, reflecting in part a slower growth rate of pRATRAK-containing cells.

RATRAK = target: T3, RATRAK (Rattus norvegicus, UniProt P63142); test: Yeast agar plate bioassay, RATRAK-dependent growth of CY162; type: cell-based; conditions: CY162 yeast bearing pRATRAK; filter disk with 20 μl of 1 M solution; blocked to a much greater extent than pKAT1
T3 construct: expressed in transfected cells; host or cells: Saccharomyces cerevisiae CY162 carrying pRATRAK
T3 sequence (P63142 whole entry): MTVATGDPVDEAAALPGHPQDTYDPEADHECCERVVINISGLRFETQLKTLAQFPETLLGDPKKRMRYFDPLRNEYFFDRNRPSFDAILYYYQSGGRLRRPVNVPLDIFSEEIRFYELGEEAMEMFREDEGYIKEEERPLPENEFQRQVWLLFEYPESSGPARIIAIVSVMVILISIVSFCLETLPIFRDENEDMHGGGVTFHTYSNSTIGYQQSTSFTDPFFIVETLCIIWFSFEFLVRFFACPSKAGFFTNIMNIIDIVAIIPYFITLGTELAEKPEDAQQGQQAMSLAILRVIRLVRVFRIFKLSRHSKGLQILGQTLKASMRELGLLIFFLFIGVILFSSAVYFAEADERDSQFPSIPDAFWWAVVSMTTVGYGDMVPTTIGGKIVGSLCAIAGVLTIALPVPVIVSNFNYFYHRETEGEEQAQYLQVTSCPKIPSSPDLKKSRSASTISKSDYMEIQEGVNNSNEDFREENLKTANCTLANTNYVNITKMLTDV
Protocol: as §1, §2

DmORF1 [3] = target: T4, DmORF1 (Drosophila melanogaster, UniProt Q94526); test: Yeast agar plate bioassay, DmORF1-dependent growth of CY162; type: cell-based; design: A single long open reading frame sufficient to encode a protein of 618 amino acids (predicted MW 68 kDa) is encoded in pDmORF1; expressed in transfected cells; host or cells: Saccharomyces cerevisiae CY162 (trk1 trk2) carrying pDmORF1 (pYES2 library plasmid); conditions: CY162 yeast bearing pDmORF1; filter disk with 20 μl of 1 M solution; arginine phosphate agar, 0.2 mM KCl
T4 sequence (Q94526 other isoform, or with tags, fused parts or gaps with the stated changes): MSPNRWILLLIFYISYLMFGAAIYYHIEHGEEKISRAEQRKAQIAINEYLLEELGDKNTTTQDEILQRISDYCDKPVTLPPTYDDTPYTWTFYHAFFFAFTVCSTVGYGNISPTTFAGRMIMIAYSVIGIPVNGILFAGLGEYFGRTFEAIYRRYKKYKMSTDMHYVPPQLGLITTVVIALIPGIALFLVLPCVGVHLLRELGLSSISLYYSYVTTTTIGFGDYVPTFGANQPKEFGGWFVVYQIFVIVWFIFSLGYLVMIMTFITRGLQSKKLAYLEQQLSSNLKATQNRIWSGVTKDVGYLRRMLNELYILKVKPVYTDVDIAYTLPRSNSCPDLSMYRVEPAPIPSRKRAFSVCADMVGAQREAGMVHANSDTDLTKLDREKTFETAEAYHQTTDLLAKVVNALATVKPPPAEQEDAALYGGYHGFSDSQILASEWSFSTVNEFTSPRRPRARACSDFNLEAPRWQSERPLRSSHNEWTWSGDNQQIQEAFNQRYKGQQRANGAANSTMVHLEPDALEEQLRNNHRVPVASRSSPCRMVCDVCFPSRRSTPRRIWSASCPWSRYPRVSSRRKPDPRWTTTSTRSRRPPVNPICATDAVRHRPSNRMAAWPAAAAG
Protocol: as §1, §2

DmORF1 [4] = target: T4, DmORF1; test: DmORF1-induced currents in X. laevis oocytes, two-electrode voltage clamp; type: cell-based; design: A single long open reading frame sufficient to encode a protein of 618 amino acids (predicted MW 68 kDa) is encoded in pDmORF1; expressed in transfected cells; conditions: two-electrode whole-cell voltage clamp
Protocol: To test this hypothesis, the electrophysiological properties of the putative potassium channel encoded by DmORF1 was examined by expression in X. laevis oocytes. Currents were measured by two-electrode whole-cell voltage clamp. DNA sequences encoding the open reading frame of DmORF1 were amplified by polymerase chain reaction (PCR) using the following oligonucleotides:
The full length PCR product was cloned into corresponding sites in pSP64 poly A (Promega), forming pMP147. Template DNA was linearized with EcoRI and RNA transcribed using the Message Machine (Ambion) in vitro transcription kit according to manufacturers instructions. A sample of the RNA was resolved in a MOPS-acetate-formaldehyde agarose gel and RNA content was estimated by ethidium bromide staining. The remainder was stored on dry ice. X. laevis oocytes were isolated and injected with 50 nl of sterile TE containing 5-20 ng transcript according to published procedures. After three days, whole oocyte currents were recorded using a two-electrode voltage clamp. Electrodes contained 3M KCl and had resistances of 0.3-1.0 MW. Recordings were performed faith constant perfusion at room temperature in the presence of either low (10 mM) or high (90 mM) potassium chloride.

DmORF1 [5] = target: T4, DmORF1; test: 86Rb uptake into CY162 cells containing DmORF1; type: cell-based; design: A single long open reading frame sufficient to encode a protein of 618 amino acids (predicted MW 68 kDa) is encoded in pDmORF1; expressed in transfected cells; host or cells: Saccharomyces cerevisiae CY162 (trk1 trk2) carrying pDmORF1 (pYES2 library plasmid); conditions: CY162-DmORF1 yeast cells, Ca-MES buffer, room temperature
Protocol: Expression of DmORF permits CY162 cells to grow on medium containing a low concentration of potassium, implying that DmORF1 supplies high affinity potassium uptake capacity. To characterize the potassium uptake properties of CY162 cells containing DmORF1, ^86Rb uptake studies were performed.
Yeast strains containing heterologous potassium-expression plasmids CY162-DmORF1, CY162-pKAT and the control strain CY162-pYES2 (Clontech) were cultured overnight in SC Gal-ura containing 0.1 M KCl. The cells were harvested, washed with sterile doubled distilled water and starved for K^+ for 6 hours in Ca-MES buffer. Cells were washed again and distributed to culture tubes (10^8 cells/tube) containing ^86RbCl in Ca-MES buffer.

Row | Compound | inhibition of growth of TPKC1-containing CY162 cells (TPKC1 [1]) | block of TPKC1 current (TPKC1 [2]) | block of KAT-dependent growth (KAT1) | block of RATRAK-dependent growth (RATRAK) | block of DmORF1-dependent growth (DmORF1 [3]) | further results
1 | [Cl-].[Rb+] [RbCl] | – | – | – | – | – | growth of control pYES-containing strain around applied compound (CY162 cells): grows only around applied
2 | [Ca+2] [Ca^2+] | inhibited | block to a lesser degree | – | – | – | –
3 | C=C[C@H]1C[N@@]2CC[C@H]1C[C@H]2[C@H](O)c1ccnc2ccc(OC)cc12 [quinine] | inhibited | block to a lesser degree | – | – | – | –
4 | [Cl-].[Cs+] [CsCl] | inhibited | failed to block | blocked | blocked | not | –
5 | CC[N+](CC)(CC)CC [TEA] | not | failed to block | blocked | blocked | not | –
6 | Nc1ccncc1 [4-AP] | – | block to a lesser degree | – | – | – | –
7 | [Cl-].[K+] [KCl] | – | – | – | – | – | growth of control pYES-containing strain around applied compound (CY162 cells): grows only around applied
8 | [Ba+2].[Cl-].[Cl-] [BaCl2] | inhibited | – | blocked | blocked | blocked | attenuation of DmORF1 potassium currents (DmORF1 [4]): greatly attenuated; inhibition of TPKC1 current (TPKC1 [2]; applied at 1 mM, FIG. 11D): 50%; inhibition of 86Rb uptake (DmORF1 [5]): inhibited
